From patent US12447156B2, “Treating progressive familial intrahepatic cholestasis (PFIC) with IBAT inhibitors” (ALBIREO AB, priority 2020, dated 2025)

Experiment: Water content and water uptake of crystal modification 1 at different relative humidity
Type: physicochemical

Q: For `CCCCC1(CCCC)CN(c2ccccc2)c2cc(SC)c(OCC(=O)N[C@@H](C(=O)N[C@@H](CC)C(=O)O)c3ccc(O)cc3)cc2S(=O)(=O)N1` [crystal modification 1], which “water content of crystal” value (about 30% relative humidity, based on total crystal weight) is on record?
A: about 3.5 % (w/w)

Q: What about the hygroscopicity (between about 30 and about 70% RH) of the same compound?
A: relatively low hygroscopicity

Q: And the “additional water taken up” value (humidity increased up to 95% RH, fully reversible)?
A: 1.5 % (w/w)
